Read-outs that look alike come from different tables or passages of the source.
How the values were obtained:
[1] = system: FGFR1-4; conditions: especially FGFR2; to a greater extent than sorafenib; preclinical results; cited from earlier work
[2] = Single-dose pharmacokinetics in cancer patients; format: in vivo, human; conditions: for AUC(0-t): read-out: AUC0–120h
Experimental: In single-dose studies, anlotinib were administered orally at dose of 5, 10, 12, or 16 mg anlotinib/person. Serial blood samples were collected in heparinized tubes before and at 0.5, 1, 2, 4, 8, 11, 24, 48, 72, 96, 120, 144, 168, 192, 216, and 240 h (samples of 144–240 h were collected only in 12 or 16 mg/person dose group) after dosing. In the 10 mg/person dose group, urine was sampled before and 0–2, 2–6, 6–11, 11–24, 24–34, 34–48, 48–58, 58–72, 72–96, and 96–120 h after dosing. In multiple-dose studies, there were two ways of multiple-dose administration. Initially, patients in 5 and 10 mg/person/day groups were treated consecutively for 28 days. Blood samples were collected 24 h after dosing on days 1, 2, 4, 7, 10, 13, 15, 16, 18, 21, 24, 28, and 29. Later, the other volunteers were given multiple doses of anlotinib at 10, 12, or 16 mg anlotinib/person/day in the 2/1 schedule for two cycles. Blood samples were collected 24 h after dosing on days 1, 4, 7, 10, 13, 15, 18, 22, 29, and 36. The collected blood samples were centrifuged to prepare plasma fractions; the urine samples were weighed after collection. All samples were stored at −70 °C for subsequent analysis. Concentrations of anlotinib were measured by liquid chromatography/mass spectrometry.
(§1) The maximum concentration (C max) and the time taken to achieve C max (T max) were obtained directly from the data with no interpolation. The area under concentration-time curve up to the last measured time point (AUC0 − t) was calculated by the trapezoidal rule. The elimination half-life (t 1/2) was calculated using the relationship 0.693/k. The k was estimated by linear regression analysis of the terminal portion of the log concentration-time data. The renal clearance (CLR) was calculated by dividing the cumulative amount excreted into urine (Cum.A e − U) by plasma AUC0 − t. Accumulation ratio (R ac) was used to indicate the extent of accumulation during multiple doses of anlotinib capsules and calculated using the following equation: Rac=C24hDay15/C24hDay1,
where C 24 h(Day1) and C 24 h(Day15) are plasma concentrations of anlotinib at 24 h after dosing on day 1 and day 15, respectively. Plasma pharmacokinetic (PK) parameters were determined using noncompartmental method with a Kinetica software package (version 5.0; Thermo Scientific, Philadelphia, PA).

[3] = tumor-bearing mice; cited from earlier work
[4] = system: VEGFR3; design: method as in details pending publication elsewhere; conditions: recombinant enzymes; ref details pending publication elsewhere; cited from earlier work
[5] = system: VEGFR2/KDR; design: method as in details pending publication elsewhere; conditions: recombinant enzymes; ref details pending publication elsewhere; cited from earlier work
[6] = system: tumor cells carrying mutations in PDGFR α, c-Kit, Met, and EGFR; conditions: preclinical background; cited from earlier work
[7] = dogs; cited from earlier work
[8] = system: human cytochrome P450 2C9; conditions: in vitro; read-out: half maximum inhibitory concentration; cited from earlier work
[9] = system: patients with advanced refractory solid tumors; assay: Phase I safety and tolerability (DLT, MTD, adverse events NCI-CTCAE 4.0); format: in vivo; conditions: for dose-limiting toxicity: in vivo
Text: Those patients received escalating doses of anlotinib daily for (1) four consecutive weeks (4/0) or (2) 2-week on/1-week off (2/1). […] If two DLTs were observed during the first cycle in a cohort, dose-escalation was halted and dose continued at a lower level until the MTD (the highest dose level for which the incidence of first-cycle DLT was <33 %) was identified. In the absence of two or more DLTs in a cohort, the dose was escalated in a modified Fibonacci scheme. Treatment cycles were repeated until disease progression, unacceptable toxicity, or withdrawal of consent.
Adverse events are graded into 0–5 according to the National Cancer Institute Common Terminology Criteria for Adverse Events (NCI-CTCAE 4.0). During treatment, blood pressure will be monitored every day. Patients with unresolved adverse reactions at the end of the test needed to be treated and followed until the reactions returned to the grade 1 degree or less, or stable.

[10] = system: human tumor xenograft models (SW-620, SK-OV-3, SMMC-7721, Caki-1, U87MG, Calu-3); conditions: colon, ovarian, liver, renal, glioma, non-small cell lung; during dosing period; cited from earlier work
[11] = system: human cytochrome P450 3A4; conditions: in vitro; read-out: half maximum inhibitory concentration; cited from earlier work
[12] = Multiple-dose pharmacokinetics in cancer patients; format: in vivo, human
Experimental: In single-dose studies, anlotinib were administered orally at dose of 5, 10, 12, or 16 mg anlotinib/person. Serial blood samples were collected in heparinized tubes before and at 0.5, 1, 2, 4, 8, 11, 24, 48, 72, 96, 120, 144, 168, 192, 216, and 240 h (samples of 144–240 h were collected only in 12 or 16 mg/person dose group) after dosing. In the 10 mg/person dose group, urine was sampled before and 0–2, 2–6, 6–11, 11–24, 24–34, 34–48, 48–58, 58–72, 72–96, and 96–120 h after dosing. In multiple-dose studies, there were two ways of multiple-dose administration. Initially, patients in 5 and 10 mg/person/day groups were treated consecutively for 28 days. […] Concentrations of anlotinib were measured by liquid chromatography/mass spectrometry.
as §1, with “The k was estimated by linear regression analysis of the terminal portion of the log concentration-time data.” left out, “Rac=C24hDay15/C24hDay1, […]” for “Rac=C24hDay15/C24hDay1,”

[13] = rats, cited from earlier work
[14] = system: advanced refractory solid tumors; assay: Tumor response by RECIST 1.1; format: in vivo, human
Experimental: Efficacies were evaluated according to NCI-proposed Response Evaluation Criteria In Solid Tumors (RECIST 1.1). The tumor will be assessed every two cycles including tumor-related symptoms and physical and imaging examination (CT or MRI) of superficial lesions. Physical and imaging examination of tumor lesions should be done at least four weeks after the first effect evaluation in patients with complete remission (CR), partial remission (PR), and stable disease (SD) to confirm efficacy.

[15] = human, plasma, single oral dose 5 mg/person (n = 1)
[16] = human, plasma, single oral dose 10 mg/person (n = 4)
[17] = human, plasma, single oral dose 12 mg/person (n = 11)
[18] = human, plasma, single oral dose 16 mg/person (n = 4)
[19] = human, plasma, single oral dose 5-16 mg/person, range
[20] = 12 mg/day 2/1 schedule, 20 assessable patients

For `COc1cc2c(Oc3ccc4[nH]c(C)cc4c3F)ccnc2cc1OCC1(N)CC1` [anlotinib], the “inactivation of FGFR1-4” value [1] is listed as “significantly inactivated”, the half-life ([2]; human, plasma, oral, mean over doses, dose-independent) is listed as 96 ± 17 h and the AUC(0-inf) [2, 15] is listed as 687 ng·h/mL. It also gave a Cmax [2, 15] of 5.8 ng/mL, a Tmax [2, 15] of 11 h and a half-life [2, 15] of 102 h. For the same molecule, the AUC(0-t) [2, 15] was 411 ng·h/mL, the AUC(0-inf) [2, 16] was 562 ± 328 ng·h/mL and the Cmax [2, 16] was 5.8 ± 2.8 ng/mL. The Tmax [2, 16] was 6 ± 4.4 h, the half-life [2, 16] was 95 ± 22 h and the AUC(0-t) [2, 16] was 318 ± 133 ng·h/mL. It also gave an AUC(0-inf) [2, 17] of 1070 ± 263 ng·h/mL, a Cmax [2, 17] of 10.5 ± 2.9 ng/mL and a Tmax [2, 17] of 7.3 ± 3.3 h. The half-life [2, 17] was 116 ± 47 h, the AUC(0-t) [2, 17] was 617 ± 194 ng·h/mL and the AUC(0-inf) [2, 18] was 1580 ± 470 ng·h/mL. The Cmax [2, 18] was 15.8 ± 3.2 ng/mL, the Tmax [2, 18] was 11 ± 8.9 h and the half-life [2, 18] was 98 ± 15 h. The AUC(0-t) [2, 18] was 894 ± 305 ng·h/mL, the MRT [2, 19] was 124 to 167 h and the Tmax [2, 19] was 4 to 11 h. The half-life [2, 19] was 64 to 136 h, the CL renal ([2]; human, urine and plasma, single oral dose, urine sampled in 10 mg/person group, read-out: renal clearance CLR (converted)) was 4 mL/h/kg and the “dose proportionality of AUC0–120h, Conclusion” value ([2]; single oral dose) was “Inconclusive”. The “dose proportionality of AUC0–∞, Conclusion” value ([2]; single oral dose) was “Inconclusive”, the “dose proportionality of C max, Conclusion” value ([2]; single oral dose) was “Inconclusive” and the “fraction of the dose excreted into urine (f e − U)” value ([2]; single oral dose, urine sampled in 10 mg/person group) was ~ 0.9%. For the same molecule, the “concentration in tumor tissue relative to plasma” value [3] was 2.4–2.6 times, the “potency relative to sorafenib” value [4] was about 500 times and the “potency relative to sunitinib” value [4] was “approximately 20 times”. The “potency relative to sorafenib” value [5] was about 500 times, the “potency relative to sunitinib” value [5] was “approximately 20 times” and the “antitumor activity against tumor cells carrying mutations” value [6] was “showed antitumor activity”. The oral bioavailability [7] was 47–74%, the IC50 [8] was 250 nM and the dose-limiting toxicity ([9]; human) was “grade 3 hypertension and grade 3 fatigue”. The dose-limiting toxicity ([9]; human, 4 weeks) was “grade 3 hypertension”, the dose-limiting toxicity [9] was “no DLT” and the maximum tolerated dose ([9]; once daily, 2/1 schedule) was 12 mg. For the same molecule, the “activity against human tumor xenograft models” value [10] was “broad activity”, the IC50 [11] was 110 nM and the “day at which maximum plasma concentration was reached” value ([12]; 2/1 schedule, 2-week dosing) was 14 days. For the same molecule, the “accumulation ratio R ac (C24h Day15/C24h Day1)” value ([12]; multiple oral doses, mean) was 12 ± 7, the oral bioavailability ([13]; oral) was 23–45% and the “exposure level in lung, kidneys, liver, heart compared with plasma” value [13] was “significant higher”. The “exposure level in the brain compared with plasma level” value [13] was “comparable”, the “patients with tumor burden shrinkage” value ([14]; 12 mg once daily) was “More than 60%” and the “partial response (PR)” value [14, 20] was 15%. The “partial response (PR), patients” value [14, 20] was 3, the “patients with tumor burden shrinkage among SD” value [14, 20] was 12 and the “progressive disease (PD)” value [14, 20] was 15%. For the same molecule, the “progressive disease (PD), patients” value [14, 20] was 3 and the “stable disease (SD), patients” value [14, 20] was 14.
